Values quoted from earlier work as cited in patent US20080044815A1, “Genetic Screen for Interaction Interface Mapping” (priority 2003, published 2008).

Key:
embryonic neurons = details: Borasio et al. 1998
neurons = details: Saporito et al. 1999
[1] = system: nerve growth factor (NGF)-deprived neurons; details: Harris et al. 2002

## CCSCc1ccc2c(c1)c1c3c(c4c5cc(CSCC)ccc5n5c4c1n2[C@H]1C[C@](O)(C(=O)OC)[C@]5(C)O1)CNC3=O [CEP-1347]
Embryonic neurons
  survival of embryonic neurons: support the survival of embryonic neurons
neurons
  loss of neurons in vivo: attenuate the loss of neurons in vivo
[1]
  metabolism and growth of NGF-deprived neurons: preserve the metabolism and growth
